Reference: patent US11534478B2, “Compositions and methods for treating cancer” (Biokine Therapeutics Ltd., priority 2015, dated 2022)
Where a SMILES comes first, the peptide text is derived from it. Bridges are numbered along the chain shown (N, C = ends). [ ]: non-standard residue; d: D form. The star is where a group is joined. 2Nal = N[C@@H](Cc1ccc2ccccc2c1)C(=O)O; Benzoyl(4-F) = O=C(c1ccc(F)cc1)*; Cit = NC(=O)NCCC[C@H](N)C(=O)O

Legend:
ID02 = molecular target: T1, ID02 (Homo sapiens, UniProt Q6ZQW0); conditions: D isomer; cited from earlier work
T1 sequence (Q6ZQW0 1-407): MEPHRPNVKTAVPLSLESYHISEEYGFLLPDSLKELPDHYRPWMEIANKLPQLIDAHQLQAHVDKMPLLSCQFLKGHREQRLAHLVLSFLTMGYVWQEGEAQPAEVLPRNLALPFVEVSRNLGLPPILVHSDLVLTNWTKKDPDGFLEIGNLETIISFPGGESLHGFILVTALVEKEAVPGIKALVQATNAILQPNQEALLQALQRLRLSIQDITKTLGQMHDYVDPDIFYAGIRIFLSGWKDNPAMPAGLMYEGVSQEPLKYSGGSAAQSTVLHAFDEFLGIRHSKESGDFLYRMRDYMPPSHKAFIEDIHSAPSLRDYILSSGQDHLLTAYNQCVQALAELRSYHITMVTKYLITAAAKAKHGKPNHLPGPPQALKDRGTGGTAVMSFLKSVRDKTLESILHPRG

[1] = in vivo
KIR2DL3 = KIR2DL3 (Homo sapiens, UniProt P10321+P43628); conditions: cited from earlier work
Chain of KIR2DL3 (P43628 22-341): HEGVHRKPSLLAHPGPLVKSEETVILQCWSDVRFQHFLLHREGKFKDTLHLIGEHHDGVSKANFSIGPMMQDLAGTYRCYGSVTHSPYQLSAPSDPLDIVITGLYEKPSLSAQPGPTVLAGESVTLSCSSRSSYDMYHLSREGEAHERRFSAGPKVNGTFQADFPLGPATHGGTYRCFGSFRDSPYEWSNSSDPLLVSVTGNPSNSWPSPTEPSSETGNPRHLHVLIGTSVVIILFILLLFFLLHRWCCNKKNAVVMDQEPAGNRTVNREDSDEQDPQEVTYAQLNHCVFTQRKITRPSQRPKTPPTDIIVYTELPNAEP
Chain of KIR2DL3 (P10321 25-366): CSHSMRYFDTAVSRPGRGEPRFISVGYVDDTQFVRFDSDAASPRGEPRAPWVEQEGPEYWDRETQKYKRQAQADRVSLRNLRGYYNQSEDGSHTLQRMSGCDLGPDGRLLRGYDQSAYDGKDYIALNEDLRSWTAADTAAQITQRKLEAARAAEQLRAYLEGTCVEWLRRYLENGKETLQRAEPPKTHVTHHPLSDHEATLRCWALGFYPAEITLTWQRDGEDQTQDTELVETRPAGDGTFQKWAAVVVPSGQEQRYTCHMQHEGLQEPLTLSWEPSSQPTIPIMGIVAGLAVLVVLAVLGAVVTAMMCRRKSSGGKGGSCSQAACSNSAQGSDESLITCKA
Chain of KIR2DL3 (P61769 21-119 partner): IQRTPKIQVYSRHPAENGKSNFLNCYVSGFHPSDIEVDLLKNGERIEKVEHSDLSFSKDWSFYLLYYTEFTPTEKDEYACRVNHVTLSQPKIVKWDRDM

In the case of `Cn1cc(C[C@H](N)C(=O)O)c2ccccc21` [Analog 1-MT, 1-methyl tryptophan], the “specificity for ID02” value (ID02) is given as “more specific for ID02”.

For `N=C(N)NCCC[C@H](NC(=O)[C@@H]1CSSC[C@H](NC(=O)[C@H](Cc2ccc3ccccc3c2)NC(=O)[C@H](CCCNC(=N)N)NC(=O)[C@H](CCCNC(=N)N)NC(=O)c2ccc(F)cc2)C(=O)N[C@@H](Cc2ccc(O)cc2)C(=O)N[C@@H](CCCNC(N)=O)C(=O)N[C@@H](CCCCN)C(=O)N[C@H](CCCCN)C(=O)N2CCC[C@H]2C(=O)N[C@@H](Cc2ccc(O)cc2)C(=O)N[C@@H](CCCNC(=N)N)C(=O)N[C@@H](CCCNC(N)=O)C(=O)N1)C(N)=O` [BL-8040, 4F-benzoyl-Arg-Arg-Nal-Cys-Tyr-Cit-Lys-DLys-Pro-Tyr-Arg-Cit-Cys-Arg-NH2] ({Benzoyl(4-F)}-RR[2Nal]CY[Cit]K[dK]PYR[Cit]CR-NH2; disulfide 4-13 (inferred)), the safety and tolerability [1] was “safe and well tolerated”.

In the case of VAPWNDAL, the “inhibition of KIR2DL3” value (KIR2DL3) is listed as “inhibitors of KIR2DL3”.

In the case of VAPWSNDYL, the “inhibition of KIR2DL3” value (KIR2DL3) is listed as “inhibitors of KIR2DL3”.
